Data: ChEMBL document CHEMBL3044747, “The antimycobacterial MICs, SARs, and QSARs of some ethnobotanically selected phytocompounds” (2013)
In brackets after ≈: the same amount, converted by molar mass.

Assays:
Format in all cases: functional
Settings in all cases: 672 h
[1] = test system: Mycobacterium tuberculosis; assay: Antimycobacterial activity against MDR Mycobacterium tuberculosis grown in MGIT liquid medium assessed as growth inhibition measured after 4 weeks by BACTEC method
[2] = test system: Mycobacterium tuberculosis; assay: Antimycobacterial activity against Mycobacterium tuberculosis H37Rv grown in MGIT liquid medium assessed as growth inhibition measured after 4 weeks by BACTEC method
[3] = test system: Mycobacterium tuberculosis; assay: Antimycobacterial activity against Mycobacterium tuberculosis H37Rv grown on Lowenstein-Jensen solid medium assessed as growth inhibition incubated with compound dissolved in water measured after 4 weeks
[4] = test system: Mycobacterium tuberculosis; assay: Antimycobacterial activity against Mycobacterium tuberculosis H37Rv grown on Lowenstein-Jensen solid medium assessed as growth inhibition incubated with compound dissolved in DMSO measured after 4 weeks
[5] = test system: Mycobacterium tuberculosis; assay: Antimycobacterial activity against Mycobacterium tuberculosis H37Rv grown on Lowenstein-Jensen solid medium assessed as growth inhibition incubated with compound dissolved in ethanol/methanol measured after 4 weeks
[6] = test system: Mycobacterium tuberculosis; assay: Antimycobacterial activity against Mycobacterium tuberculosis H37Rv grown on Lowenstein-Jensen solid medium assessed as growth inhibition measured after 4 weeks

## CCCCCC1=C(O)C(=O)C=C(O)C1=O
[1]
  MIC: 110 µg/mL (≈ 523 µM)
[2]
  MIC: 50 µg/mL (≈ 238 µM)

## COc1cc(O)c(C/C=C/c2ccccc2)c(OC)c1
[3]
  MIC: 37.9 µg/mL (≈ 140 µM)
[4]
  MIC: 58.4 µg/mL (≈ 216 µM)

## CCCC/C=C/CCCCCCCCCCCCCC1=C(C(C)=O)C(=O)C(C)=C(OC(C)=O)C1=O
[1]
  MIC: 27.5 µg/mL (≈ 56.5 µM)
[2]
  MIC: 5 µg/mL (≈ 10.3 µM)

## COc1cc(-c2cc(=O)c3c(O)cc(O)cc3o2)c(OC)c(OC)c1OC
[3]
  MIC: 48 µg/mL (≈ 128 µM)
[4]
  MIC: 15 µg/mL (≈ 40.1 µM)
[5]
  MIC: 7.4 µg/mL (≈ 19.8 µM)

## CCCCCCCCCCCCCCCC1=C(O)C(=O)C=C(O)C1=O
[1]
  MIC: 105 µg/mL (≈ 300 µM)
[2]
  MIC: 107 µg/mL (≈ 305 µM)

## COc1ccc(-c2coc3cc(O)cc(O)c3c2=O)cc1C=O
[3]
  MIC: 36.3 µg/mL (≈ 116 µM)
[4]
  MIC: 37 µg/mL (≈ 118 µM)

## COc1ccc2c(c1OC)C=NC1C2CCC2CC3OCOC3CC21.Cl (stereo not drawn)
[3]
  MIC: 50.3 µg/mL
[4]
  MIC: 31.3 µg/mL
[5]
  MIC: 16 µg/mL

## CCCC/C=C/CCCCCCCCCC1=C(O)C(=O)C=C(OC)C1=O
[3]
  MIC: 50 µg/mL (≈ 138 µM)
[4]
  MIC: 40.7 µg/mL (≈ 112 µM)

## CCCC/C=C/CCCCCCCCCC1=C(O)C(=O)C(C)=C(O)C1=O
[3]
  MIC: 40.9 µg/mL (≈ 113 µM)
[4]
  MIC: 41.3 µg/mL (≈ 114 µM)

## COc1cc(O)cc(O)c1C/C=C/c1ccccc1
[3]
  MIC: 53.7 µg/mL (≈ 210 µM)
[4]
  MIC: 49.7 µg/mL (≈ 194 µM)

## CCCCCCCCCCCC1=C(OC)C(=O)C=C(OC)C1=O
[1]
  MIC: 20 µg/mL (≈ 62 µM)
[2]
  MIC: 10 µg/mL (≈ 31 µM)

## CC(=O)c1c(C)cc2cccc(O)c2c1O [NEPODIN]
[3]
  MIC: 84.7 µg/mL (≈ 392 µM)
[4]
  MIC: 40.3 µg/mL (≈ 186 µM)

## O=C1C[C@@H](c2ccccc2)Oc2cc(O)cc(O)c21 [PINOCEMBRIN]
[3]
  MIC: 63.3 µg/mL (≈ 247 µM)
[4]
  MIC: 73 µg/mL (≈ 285 µM)

## CC1=CC(=O)c2c(O)cccc2C1=O [PLUMBAGIN]
[3]
  MIC: 40.3 µg/mL (≈ 214 µM)
[4]
  MIC: 42.3 µg/mL (≈ 225 µM)

## COc1ccc(-c2oc3cc(O)c(OC)c(O)c3c(=O)c2OC)cc1 [SANTIN]
[3]
  MIC: 51 µg/mL (≈ 148 µM)
[4]
  MIC: 59 µg/mL (≈ 171 µM)

## CCCCCCCCCCCCCC1=C(O)C(=O)C=C(O)C1=O [Rapanone]
[1]
  MIC: 65 µg/mL (≈ 202 µM)
[2]
  MIC: 35 µg/mL (≈ 109 µM)

## Cc1cc(O)c2c(c1)C(=O)c1cc(O)cc(O)c1C2=O [EMODIN]
[3]
  MIC: 50.3 µg/mL (≈ 186 µM)
[4]
  MIC: 51.7 µg/mL (≈ 191 µM)

## COc1cc(O)c2c(=O)c(O)c(-c3ccc(O)cc3)oc2c1 [RHAMNOCITRIN]
[3]
  MIC: 59.7 µg/mL (≈ 199 µM)
[4]
  MIC: 37.7 µg/mL (≈ 126 µM)
[5]
  MIC: 15.3 µg/mL (≈ 51 µM)

## COc1cc(O)c(C/C=C/c2ccccc2)c(O)c1OC
[3]
  MIC: 48.3 µg/mL (≈ 169 µM)
[4]
  MIC: 41 µg/mL (≈ 143 µM)

## COc1ccc(C2Oc3cc(O)c(OC)c(O)c3C(=O)C2OC)cc1 (stereo not drawn)
[3]
  MIC: 59.3 µg/mL (≈ 171 µM)
[4]
  MIC: 53 µg/mL (≈ 153 µM)

## C[C@]12CC(=O)CC(CO)(CO)C1CC[C@@]13CC4[C@@H](CC12)[C@@]4(C)C3 (stereo partly drawn)
[3]
  MIC: 23.3 µg/mL (≈ 73.2 µM)
[4]
  MIC: 42.9 µg/mL (≈ 135 µM)
[5]
  MIC: 42.3 µg/mL (≈ 133 µM)

## CC[C@@H](CO)NCCN[C@@H](CC)CO [ETHAMBUTOL]
[1]
  MIC: 15 µg/mL (≈ 73.4 µM)
[2]
  MIC: 2.5 µg/mL (≈ 12.2 µM)
[6]
  MIC: 2.65 µg/mL (≈ 13 µM)

## CCCCCCCCCCCC1=C(O)C(=O)C=C(OC)C1=O [5-O-METHYLEMBELIN]
[1]
  MIC: 32.9 µg/mL (≈ 107 µM)
[2]
  MIC: 15 µg/mL (≈ 48.6 µM)

## NNC(=O)c1ccncc1 [ISONIAZID]
[1]
  MIC: 2.7 µg/mL (≈ 19.7 µM)
[2]
  MIC: 0.8 µg/mL (≈ 5.83 µM)
[6]
  MIC: 0.6 µg/mL (≈ 4.38 µM)

## CCC1=C(O)C(=O)C(CC)=C(O)C1=O
[1]
  MIC: 55 µg/mL (≈ 280 µM)
[2]
  MIC: 50 µg/mL (≈ 255 µM)

## C=C1CC23CCC4[C@](O)(CO)C[C@@H](O)C[C@]4(C)C2CCC1C3 (stereo partly drawn)
[3]
  MIC: 66.8 µg/mL (≈ 218 µM)
[4]
  MIC: 37.6 µg/mL (≈ 123 µM)
[5]
  MIC: 39.7 µg/mL (≈ 130 µM)

## COc1cc(O)c(CCCc2ccccc2)c(O)c1OC
[3]
  MIC: 49.7 µg/mL (≈ 172 µM)
[4]
  MIC: 34.3 µg/mL (≈ 119 µM)

## COc1ccc(-c2oc3cc(O)cc(O)c3c(=O)c2O)cc1 [KAEMPFERIDE]
[3]
  MIC: 26 µg/mL (≈ 86.6 µM)
[4]
  MIC: 32.7 µg/mL (≈ 109 µM)

## CCCCCCCCCC1=C(O)C(=O)C=C(O)C1=O
[1]
  MIC: 60 µg/mL (≈ 225 µM)
[2]
  MIC: 7.5 µg/mL (≈ 28.2 µM)

## CCCC/C=C/CCCCCCCCCCCCCc1c(O)c(OC(C)=O)c(C)c(OC(C)=O)c1OC(C)=O
[1]
  MIC: 40 µg/mL (≈ 73.2 µM)
[2]
  MIC: 10 µg/mL (≈ 18.3 µM)

## CCCCCCCCCCCC1=C(C(C)=O)C(=O)C=C(OC(C)=O)C1=O
[1]
  MIC: 50 µg/mL (≈ 138 µM)
[2]
  MIC: 42.5 µg/mL (≈ 117 µM)

## CN[C@@H]1[C@H](O[C@H]2[C@H](O[C@H]3[C@H](O)[C@@H](O)[C@H](N=C(N)N)[C@@H](O)[C@@H]3N=C(N)N)O[C@@H](C)[C@]2(O)C=O)O[C@@H](CO)[C@H](O)[C@H]1O [STREPTOMYCIN]
[1]
  MIC: 2.5 µg/mL (≈ 4.3 µM)
[2]
  MIC: 3.3 µg/mL (≈ 5.67 µM)
[6]
  MIC: 4.95 µg/mL (≈ 8.51 µM)

## CCCCCCCCCCCC1=C(O)C(=O)C=C(O)C1=O [EMBELIN]
[3]
  MIC: 49 µg/mL (≈ 166 µM)
[1]
  MIC: 50 µg/mL (≈ 170 µM)
[4]
  MIC: 35.3 µg/mL (≈ 120 µM)
[2]
  MIC: 15 µg/mL (≈ 51 µM)
[5]
  MIC: 14.7 µg/mL (≈ 49.9 µM)

## COc1cc2c(=O)c(-c3ccc4c(c3)OCO4)coc2c2c1OC(C)(C)CC2
[3]
  MIC: 37.9 µg/mL (≈ 99.6 µM)
[4]
  MIC: 74.7 µg/mL (≈ 196 µM)
[5]
  MIC: 40.3 µg/mL (≈ 106 µM)

## CCC1=C(O)C(=O)C=C(O)C1=O
[3]
  MIC: 62.3 µg/mL (≈ 371 µM)
[1]
  MIC: 120 µg/mL (≈ 714 µM)
[4]
  MIC: 70 µg/mL (≈ 416 µM)
[2]
  MIC: 109 µg/mL (≈ 648 µM)

## C[C@@H]1CCC2(CO)C(C(=O)O)=CCCC2[C@@]1(C)CCc1ccoc1 (stereo partly drawn)
[3]
  MIC: 36.7 µg/mL (≈ 110 µM)
[4]
  MIC: 37.4 µg/mL (≈ 113 µM)
[5]
  MIC: 31 µg/mL (≈ 93.2 µM)

## CCCCCCCCCCCCCC1=C(O)C(=O)C=C(OC)C1=O [Sorgoleone-364]
[1]
  MIC: 70 µg/mL (≈ 208 µM)
[2]
  MIC: 60 µg/mL (≈ 178 µM)

## CCCCCCCC1=C(O)C(=O)C=C(O)C1=O
[1]
  MIC: 106 µg/mL (≈ 445 µM)
[2]
  MIC: 45 µg/mL (≈ 189 µM)

## CC(C)CCc1cc2c(cc1O)OCC1c3cc(O)cc(CCC(C)C)c3OC21 (stereo not drawn)
[3]
  MIC: 81.7 µg/mL (≈ 206 µM)
[4]
  MIC: 74.3 µg/mL (≈ 187 µM)

## O=C1CCc2nccc3c4ccccc4n1c23
[3]
  MIC: 49.3 µg/mL (≈ 222 µM)
[4]
  MIC: 42 µg/mL (≈ 189 µM)
[5]
  MIC: 30 µg/mL (≈ 135 µM)

## c1c2c(cc3c1C1CCN4CCC[C@@]56CCN3[C@@]1(CC5)C46)OCO2 (stereo partly drawn)
[3]
  MIC: 38.7 µg/mL (≈ 119 µM)
[4]
  MIC: 36.2 µg/mL (≈ 112 µM)

## CO[C@H]1/C=C/O[C@@]2(C)Oc3c(C)c(O)c4c(O)c(c(/C=N/N5CCN(C)CC5)c(O)c4c3C2=O)NC(=O)/C(C)=C\C=C\[C@H](C)[C@H](O)[C@@H](C)[C@@H](O)[C@@H](C)[C@H](OC(C)=O)[C@@H]1C [RIFAMPIN]
[1]
  MIC: 30 µg/mL (≈ 36.5 µM)
[2]
  MIC: 7.5 µg/mL (≈ 9.11 µM)
[6]
  MIC: 45.7 µg/mL (≈ 55.5 µM)

## CCCC1=C(O)C(=O)C=C(O)C1=O
[1]
  MIC: 115 µg/mL (≈ 631 µM)
[2]
  MIC: 85 µg/mL (≈ 467 µM)
